From PMC9014415, “Repositioning of a Diaminothiazole Series Confirmed to Target the Cyclin-Dependent Kinase CRK12 for Use in the Treatment of African Animal Trypanosomiasis” (Journal of Medicinal Chemistry, 2022)
Several values for one entry are separate records, joined by “and”; a condition that tells them apart may be missing. Identical values can stand only once. Entries after “also recorded” stand apart in the source; their conditions may differ.

Experiments:
[1] = tested on: T. congolense; assay: In vitro drug sensitivity assay, T. congolense (IL3000); assay type: cell-based; conditions: Trypanosoma congolense; IL3000 strain
Description: 1.2 In vitro drug sensitivity assays - Trypanosoma congolense
EC50 values for test compounds against T. congolense (IL3000 strain) were conducted as previously described3 with minor modifications.4 Briefly, trypanosome cell densities were determined using a CASY cell counter (Schärfe) and diluted to a seeding density of 2 x 105 trypanosomes/mL. BSF trypanosomes were grown in HMI-9 (IMDM) media supplemented with 20% (v/v) bovine serum.1 Test compounds were resuspended to a final concentration of 10 mg/mL in DMSO. Assays plates were incubated at 34 °C with 5 % CO2, for a total of 69 h, prior to addition of 10 µL of Resazurin (12.5 mg in 100 mL phosphate buffered saline, Aldrich) into each well, followed by a further 3 h incubation. Absorbance was read using a SpectraMax (Gemini XS) fluorescence reader at an excitation wavelength of 536 nm and an emission wavelength of 588 nm. EC50 values were determined using SOFTmax Pro 5.2 analysis software. All experiments were conducted with technical duplicates, and at least three biological replicates. […]

[2] = Bovine liver microsome stability; assay type: in vitro ADME; conditions: intrinsic clearance
Description: 2.2 Microsomal stability studies […]
(b) Bovine liver microsome stability. Test compounds (0.5 µM) were incubated with 0.5 mg/mL bovine liver microsomes (Xenotech LLC TM) in 50 mM potassium phosphate buffer, pH7.4 and the reaction initiated upon addition of excess NADPH (8 mg/mL in 50 mM potassium phosphate buffer, pH7.4).
Aliquots (50 µL) of the incubation mixture were taken at time zero, 3, 6, 9, 15 and 30 min then mixed with acetonitrile (100 µL) to stop the reaction. An internal standard was added to all samples, prior to centrifugation (10 min, 1,665 g, RT) to sediment precipitated protein. Reaction plates were then sealed prior to UPLCMSMS analysis using a Quattro Premier XE (Waters corporation, USA).
XLfit (IDBS, UK) was used to calculate the exponential decay and consequently the rate constant (k) from the ratio of peak area of test compound to internal standard at each timepoint. The rate of intrinsic clearance (CLi) of each test compound was then calculated using the following […]
CLi(mL/min/g liver) = k x V x microsomal protein yield
Where V (mL/mg protein) is the incubation volume/ mg protein added and microsomal protein yield is taken as 52.5 mg protein/ g of liver. Verapamil (0.5 µM) was used as a positive control to confirm acceptable assay performance. […]

[3] = tested on: T. congolense; assay: NMRI mouse efficacy model, T. congolense; assay type: in vivo, Trypanosoma congolense; conditions: for Efficacy at 10 mg/kg SC for 4 days, T. congo / Efficacy, T. congo: mice; for Efficacy at 10 mg/kg SC for 4 days, T. congo: 10 mg/kg SC once daily for 4 days
Description: 3. In vivo efficacy studies
The T. congolense (IL3000) and T. vivax (ILRAD V34) cell lines7, 8, both originating from Kenya, were used in the following in vivo mouse studies. For studies in cattle, either Trypanosoma congolense (savannah) KONT 2/133, 224) or T. vivax STIB 719 was used.
3.1 Mouse efficacy studies for T. brucei brucei.
Mouse efficacy studies for T. brucei brucei were carried out as previously detailed.9 3.2 NMRI mouse efficacy studies for T. congolense and T. vivax.
Mouse models of infections were carried out using standardized protocols. Briefly, 1 mL samples of cryopreserved T. congolense, or T. vivax-infected blood harvested directly from an infected mouse, were diluted with Hanks Balanced Salt Solution plus 20 mM glucose (HBSS+G) to 5 x 10^4 trypomastigotes/mL (5 x 105 for T. vivax). Female mice (NMRI) were inoculated IP on day 0 with 0.2 mL/animal (equivalent to ~ 1 x 104 T. congolense or ~ 1 x 105 T. vivax per animal). The level of parasitaemia was inspected microscopically on day 3 using tail blood smears, counting 20 high powered fields (× 400 magnification). For untreated or treated animals whose tail smears exceeded 50 parasites/field, precise parasite levels were established using a Neubauer haemocytometer; mice with a parasite burden over 1 x 108 were promptly and humanely terminated (T. congolense only, from our experience the mice will not survive for a further 24 h). Alternatively, in the case of T. vivax-infected mice the immune system will bring the infection to a sub-lethal level (below limit of detection) […]
followed by cycles of high and low parasitaemia. Eventually mice infected with T. vivax succumb to the infection between 30 – 60 days post-infection.
Suppression of parasitaemia - mouse
On day 3 post-infection, animals were randomly allocated to groups, with 3 mice/group. Infected animals were dosed with one of the following: diaminazene diaceturate IP. – 40 mg/kg once only as a control (early-stage trypanocide used to clear the parasites in the systemic circulation and in tissues other than CNS), compound 1 (SC) at 3, 10, 30 and 50 mg free base/kg twice and once daily for 4 d or a single dose, or compound 2 (SC) at 3 and 10 mg free base /kg once daily for 4 d, once daily for 2 d or a single dose, one group of 3 mice acted as an untreated control group. The dose solutions were prepared daily, using 5% DMSO: 40% PEG400: 55% MilliQ H2O for test compounds and 10% DMSO: 90% peanut oil for standard drugs. Alternatively, compound 2 was delivered for 48 h via SC implanted ALZET osmotic pumps (6, 12, 25 and 50 mg free base/mL, vehicle: 50% DMSO […]
and 50% deionized water).
Response to treatment was determined by monitoring parasitaemia twice a week until day 21.
After day 21, the mice were checked once a week until 63 d post-treatment. Mice surviving to the end of the experiment, and with blood smears clear of parasites, were considered cured. […]
The parasites were obtained from a donor calf. This isolate is resistant to diminazene (20 mg/kg) and isometamidium (1 mg/kg) in cattle, and diminazene (7 mg/kg) and isometamidium (>1 mg/kg) in mice. Calves were parasitaemic by study day 6. Calves (n = 5) were treated with compound 1 (5 mg/kg, SC, twice 12 h apart) on study

SMILES	EC50 [1]	Bovine Microsome Cli (BLM: bovine microsomal clearance) [2]	Acute T. congolense efficacy in mice ([3]; 3 mg/kg bid SC for 4 days)	Acute T. congolense efficacy in mice ([3]; 10 mg/kg bid SC for 4 days)	T. congolense efficacy in mice ([3]; 10 mg/kg once daily for 4 days, SC)	Acute T. congolense efficacy in mice ([3]; 30 mg/kg, single dose, SC)	Acute T. congolense efficacy in mice ([3]; 50 mg/kg single dose, SC)	Efficacy at 10 mg/kg SC for 4 days, T. congo [3]	Efficacy, T. congo ([3]; 3 mg/kg (head: SC for 4 days))	Efficacy in T. congolense-infected mice, implanted ALZET osmotic pumps ([3]; SC pump delivery, all dose levels)	Efficacy at 10 mg/kg SC for 4 days, T. congo ([3]; 10 mg/kg)	Efficacy, T. congo ([3]; 10 mg/kg once daily for 2 days)	Efficacy, T. congo ([3]; 10 mg/kg, regimen not restated, listed after the 3 mg/kg result)
CC(C)CS(=O)(=O)N[C@H]1CC[C@H](Nc2nc(N)c(C(=O)c3c(F)cccc3F)s2)CC1 [Compound 1, N-((trans)-4-((4-Amino-5-(2,6-difluorobenzoyl)thiazol-2-yl)amino)cyclohexyl)-2-methylpropane-1-sulfonamide]	18 nM	<0.5 / 0.5 mL/min/g and <0.5 mL/min/g	Partial cure (2/3)	Full cure	sterile cure	Partial cure: (2/3)	sterile cure; also recorded: Full cure	–	–	–	–	–	–
CNCc1cc(F)c(C(=O)c2sc(N[C@H]3CC[C@H](NS(=O)(=O)CC(C)C)CC3)nc2N)c(F)c1.Cl [Compound 8, N-((trans)-4-((4-Amino-5-(2,6-difluoro-4-((methylamino)methyl)benzoylthiazol-2-yl)amino)cyclohexyl))-2-methylpropane-1-sulfonamide Hydrochloride]	1.3 nM	0.5 mL/min/g	–	–	–	–	–	Full cure (3/3)	–	–	–	–	–
CC(C)CS(=O)(=O)N[C@H]1CC[C@H](Nc2nc(N)c(C(=O)c3c(Cl)cccc3Cl)s2)CC1 [Compound 10, N-((trans)-4-((4-Amino-5-(2,6-dichlorobenzoyl)thiazol-2-yl)amino)cyclohexyl)-2-methylpropane-1-sulfonamide]	0.4 nM	1.6 mL/min/g	–	–	–	–	–	–	Full cure (3/3) 3 mg/kg	–	–	–	–
CC(C)CS(=O)(=O)N[C@H]1CC[C@H](Nc2nc(N)c(C(=O)c3c(F)cc(CN(C)C)cc3F)s2)CC1 [Compound 2, N-(trans)-[4-[[4-Amino-5-[4-(dimethylaminomethyl)-2,6-difluoro-benzoyl]thiazol-2-yl]amino]cyclohexyl]-2-methyl-propane-1-sulfonamide]	3.2 nM	1.1 mL/min/g	–	–	–	–	–	–	Partial cure (2/3)	cured; also recorded: full cure	fully curative; also recorded: Full cure; also recorded: Partial cure (1/3)	Partial cure (2/3)	Full cure
